Measured values published in patent US10377729B2, “Bis-furan derivatives as transthyretin (TTR) stabilizers and amyloid inhibitors for the treatment of familial amyloid polyneuropathy (FAP)” (BSIM Therapeutics, S.A., priority 2015, dated 2019).
Where “and” joins values, the source holds several entries; their conditions need not be identical. Identical values can stand only once. Entries after “also recorded” stand apart in the source; their conditions may differ. Like-named read-outs stand apart in the source and are kept apart here.

How the values were obtained:
[1] = molecular target: recombinant human wild-type TTR (WT-TTR) (Homo sapiens (Human), UniProt P02766); settings: for IEI (inhibition efficiency index): IEI = (pIC50/MW) × 1000; for ILE (inhibition lipophilic efficiency): ILE = pIC50 − cLogP; for pIC50: negative logarithm of IC50 values; for IC50: read-out: IC50 ± S.D. (concentration inhibiting TTR amyloid fibril formation by 50%), WT-TTR 3.6 μM, pH 4.4, 72 hours at 37° C., mean of at least 3 determinations; for inhibition of amyloid fibril formation by TTR (in words): compounds at 2×, 1× and 0.5× of WT-TTR (3.6 μM), 72 hours, FIG. 5
Procedure: In an embodiment, the TTR aggregation assay was conducted. […] In this assay, a solution of the test compound is added to a solution of TTR, so that the final concentration is 3.6 μM in protein (TTR) and 7.2, 3.6 and 1.8 μM in the test compound. At such concentrations, compounds may exert their activity through binding to one or both TTR binding sites. The pH of the resulting solution is then lowered to 4.4 to promote amyloidogenesis. The process of amyloid fibril formation over time is assessed by turbidity measurements at three different wavelengths, using a spectrophotometer endowed with a microplate reader.
In an embodiment, the extent of fibril formation of each mixture was normalized by comparison to a sample with protein (TTR) in absence of test compounds, which, at the end of 72 hours, represents 100% of amyloid fibril formation. In each experiment, each compound concentration was tested in triplicate. For each compound concentration, the arithmetic mean of the triplicate experiments was calculated, as well as the arithmetic mean of the three measured wavelengths.
In an embodiment, the IC50 determination assay was conducted. […] Ten different compound concentrations were used for each IC50 determination, while the protein concentration was kept constant at 3.6 μM (FIG. 6).
In an embodiment, the compound preparation for amyloid fibril formation assay was conducted as follows: compounds were prepared as 10.8 mM stock solutions in pure DMSO. Several dilutions in DMSO of the stock solution were made to provide secondary stock solutions. The concentrations were chosen depending on the efficacy of the compound in inhibiting the formation of TTR amyloid fibrils.
In an embodiment, the amyloid fibril formation assay used in this disclosure was based on the one presented in reference [46] and adapted to run in a 96-well microplate. For this purpose, 1 μL of different compound secondary stock solutions was added to 50 μL of a 7.2 μM WT-TTR solution in 10 mM sodium phosphate buffer, 100 mM KCl and 1 mM EDTA, pH 7.2, previously dialyzed against the same buffer solution. After 30 minutes of incubation at room temperature, the pH of the mixture was lowered to 4.4 with 49 μL of 200 mM acetate buffer, 100 mM KCl and 1 mM EDTA, pH 4.3. […] The mixtures were incubated at 37° C. for 72 hours.
In an embodiment, the turbidity at 405 nm, 450 nm and 490 nm (or 550, 600 and 650 nm when the compound absorbs at the previous wavelengths) was measured over time using a microplate spectrophotometer (BioTek Instruments, Inc. Winooski, Vt., USA) to evaluate the extent of fibril formation. Immediately before the turbidity measurements, the mixtures were gently shaken for 1 minute for homogenization but to avoid damaging the formed amyloid aggregates and fibrils. The final turbidity for each compound concentration tested in triplicate was calculated as an average of the three wavelengths measured. In addition, control samples containing TTR with no inhibitor and 1% DMSO, as well as inhibitor in absence of TTR, were tested and analyzed.
In an embodiment, the extent of amyloid fibril formation was compared to WT-TTR with no inhibitor, assigned to be 100% amyloid fibril formation (or 0% amyloid inhibition) at the end of the experiment.
IC50 values were determined by monitoring the effect of increasing concentrations of the compounds under test on the inhibition values. Ten different compound concentrations were used for each IC50 assay, along with a fixed WT-TTR concentration (3.6 μM).

[2] = test system: HepG2 cells (human liver carcinoma cell line); assay: HepG2 cell viability assay (resazurin reduction); assay type: cell-based; settings: for ID50: HepG2, 72 hours of incubation; for toxicity for HepG2 cells (in words): 72 hours, even at high doses, FIG. 10
Procedure: In an embodiment, the toxicity profiling in HepG2 cell lines was evaluated. […] Further toxicology is required if AT09 compounds are to be progressed to subsequent stages of development, not only to discard potential liver damage (or toxicity to other organs/tissues) but also given the long-term nature of treatments required by patients suffering from TTR amyloidoses (such as FAP), associated co-morbidities, or other TTR-related pathologies.
In an embodiment, the HepG2 cell viability assay was conducted as follows:
Adherent human hepatoma cells HepG2 were cultured in DMEM (Dulbecco's Modified Eagle's Medium) with 10% fetal bovine serum (FBS), 100 U/mL penicillin, 100 μg/mL streptomycin, and 1 mM sodium pyruvate. The cells were grown in 75 cm^2 culture flasks at 37° C., in an atmosphere of 5% CO2, and subcultured twice a week using a trypsin-EDTA solution.
Upon 3-4 days of growth and reaching approximately 90-95% confluence, HepG2 cells were plated in 96-well microplates with cell density of 12×10^3 cells/well and in a volume of 100 μL per well.
In this assay, the compounds were dissolved in pure DMSO and subsequently diluted in DMEM (in 9 intermediate compound concentrations). After adhesion of HepG2 cells to the microplates, 100 μL of each solution of intermediate compound concentration was added to each well (in quadruplicate). Positive controls with 10 wells containing only cells were tested; solvent controls resulted from the analyses of the three highest DMSO concentrations tested and were carried out in triplicate.
After addition of the compounds to the cells, the microplates were incubated for approximately 72 hours at 37° C. in an atmosphere of 5% CO2 until the cell viability assay was performed.
The viability of HepG2 cells in the presence of test compounds was assessed by the resazurin reduction assay. A stock solution of 0.01% resazurin in PBS is diluted 1:10 in incomplete RPMI 1640 cell medium (without addition of antibiotics and FBS). After washing the cells with 200 μL PBS containing Ca^2+ and Mg^2+, 200 μL of 0.001% resazurin were added to the wells. Blanks with incomplete RPMI 1640 medium alone were done in triplicate. The microplates were incubated at 37° C. and 5% CO2 for approximately 2-4 hours.
To quantify the reduction of resazurin, microplate absorbance readings were taken at two wavelengths, 540 nm (reduced form) and 630 nm (oxidized form), in a microplate spectrophotometer (BioTek Instruments, Inc.). The percentage of viable cells at each compound concentration was determined using the equation % viable cells=[(ε630 nm×Abs540 nm)−(ε540 nm×Abs630 nm)]/[(ε630 nm×Ctrl540 nm)−(ε540 nm×Ctrl630 nm)]
where ε is the molar extinction coefficient, Abs is the absorbance and Ctrl is the absorbance of the positive control (cells without compound).

[3] = test system: TTR in human plasma (versus albumin and thyroxine-binding globulin); assay: Ex vivo thyroxine ([125I]-T4) competition assay in human plasma (native PAGE); settings: FIG. 9 A; for displacement of T4 from TTR / binding affinity for TTR (increasing order, in words): heterozygotic TTR V30M carriers and normal subjects, B
Procedure: After electrophoresis, the gels are dried, subjected to phosphor imaging (Typhoon 8600; […], Amersham Biosciences), and analysed using the ImageQuant program version 5.1. The intensity of the protein bands is compared. Two or three bands of different intensity should be visualized in plasma samples.
The results are analyzed by calculation of the TTR/total (TTR+ALB+TBG) ratio for each sample.

[4] = test system: familial amyloid polyneuropathy (FAP) patients; settings: 18-month phase-III clinical trial; cited from earlier work
AD/TTR+/− mice = settings: cited from earlier work
[5] = molecular target: wild type TTR in human plasma (Homo sapiens (Human), UniProt P02766); assay: Ex vivo TTR stability to dissociation assay (IEF, 4 M urea), plasma of normal subjects; assay type: biochemical; settings: wild type TTR plasmas, 5 samples, IEF densitometry
Procedure: (§1) In an embodiment, the AT09-B00 compound was further tested ex vivo for its effect on the stability of human plasma TTR, using isoelectric focusing (IEF) under semi-denaturating conditions, i.e. in the presence of 4 M of urea—as described in this disclosure and in references. After plasma incubation with the test and reference compounds, TTR was isolated by PAGE and run on IEF. Bands corresponding to different TTR species were quantified and the tetramer to total protein ratio was determined. Under the experimental conditions used, TTR presented a typical pattern of two main bands, representing monomers (normal and oxidized forms), and several bands of lower isoelectric point (pI) indicating different forms of TTR tetramers.
(§2) In an embodiment, ex vivo TTR stability assays were conducted. Plasma TTR stability to dissociation is assessed by isoelectric focusing (IEF) in semi-denaturing conditions of human plasma samples as described in references. To perform the assay, 30 μL of human plasma are incubated with 5 μL of a 10 mM solution of test compounds and control compounds overnight at 4° C. followed by a 1 hour incubation at room temperature. The samples are then subjected to native PAGE and the gel band containing TTR is excised and applied to an IEF gel. […] The results are expressed as the average ratio of TTR tetramer for over total TTR over 5 repetitions±the standard deviation.

TTR V30M in human plasma = TTR V30M in human plasma (Homo sapiens (Human), UniProt P02766, V30M); assay: Ex vivo TTR stability to dissociation assay (IEF, 4 M urea), plasma of heterozygotic V30M carriers; assay type: biochemical; settings: plasmas of heterozygotic V30M carriers, 5 samples, IEF densitometry
Procedure: as §1, §2

WT-TTR = WT-TTR (Homo sapiens (Human), UniProt P02766); assay: Isothermal titration calorimetry (ITC) with WT-TTR; settings: 25° C., pH 7.2, 2% DMSO, model with two ligand-binding sites
Procedure: In an embodiment, Isothermal titration calorimetry (ITC) experiments were conducted to determine the binding constants of bis-furan compounds to TTR. […] An initial injection of 4 μL of titrant was followed by 28 regular injections of 10 μL until saturation of the titrated solution was reached. The heat associated with each injection was measured throughout time and calculated by integration of the area under the deflection of the measured peak, after baseline correction (i.e. subtraction of blank). Further details about the ITC experiments are provided herein.
The corresponding dissociation constants were calculated according to the equation given herein.
In an embodiment, the isothermal titration calorimetry (ITC) experiments were performed on a Malvern high precision VP-ITC titration calorimetry system (Malvern Instruments, Worcestershire, UK; previously from MicroCal). Compound stock solutions were prepared in pure DMSO. Both compound and WT-TTR dilutions were prepared in 20 mM sodium phosphate buffer, 150 mM sodium chloride and 2% DMSO, at pH 7.2. All solutions were filtered and degassed prior to use.
In an embodiment, in all titrations, the initial injection of 4 μL of titrant to the calorimetric cell was followed by 28 injections at regular intervals of 10 μL each, until saturation of the titrated solution was reached. […] The extent of binding was determined by direct measurement of the heat exchanged with the environment: the heat associated with each injection is proportional to the complex concentration and can be calculated by integrating the area under the deflection of the measured calorimetric signal. Data were analyzed with the Origin 7.0 software package from Malvern. A baseline correction was applied to each experiment by subtraction of data from injections of ligand solution into a buffer blank correlating to the heat of dilution of the ligand solution. For the calculation of the association constant (Ka), data analysis was performed according to a model of binding to a macromolecule with two ligand-binding sites, by non-linear regression. The reported dissociation constant (Kd) is the reciprocal of Ka, according to the equation ΔG=−RTInKa=RTInKd, where ΔG is the Gibbs free energy of binding, R is the gas constant and T is the temperature.

| Molecule | IEI (inhibition efficiency index) [1] | ILE (inhibition lipophilic efficiency) [1] | pIC50 [1] | IC50 [1] [nM] | displacement of T4 from TTR / binding affinity for TTR (increasing order, in words) [3] | inhibition of amyloid fibril formation by TTR (in words) [1] | further results |
| --- | --- | --- | --- | --- | --- | --- | --- |
| Oc1c(Cl)cc(-c2cc(Cl)c(O)c(Cl)c2)cc1Cl [Compound 2OH-PCB80, reference compound] | 18.0 | 0.37 | 5.80 | 1590 |  |  | ID50 [2]: 19.4 μg/mL and 60 μM |
| O=C(O)c1ccc2nc(-c3cc(Cl)cc(Cl)c3)oc2c1 [Tafamidis] |  |  |  |  | iododiflunisal<tafamidis<AT09-B00 |  | ID50 [2]: 76.1 μg/mL and 247 μM; ID50 ([2]; listed as tafamidis): more than 75 μg/mL; FAP patients with improvement of symptoms [4]: approximately 60% |
| O=C(O)c1cc(-c2ccc(F)cc2F)cc(I)c1O [iododiflunisal, reference compound] |  |  |  |  | iododiflunisal<tafamidis<AT09-B00 |  | brain Abeta levels and deposition, cognitive function (AD/TTR+/− mice): decreased brain Aβ levels and deposition; also recorded: decreased brain Abeta levels and deposition; tetramer to total protein ratio [5]: 0.768; tetramer to total protein ratio (TTR V30M in human plasma): 0.445 |
| (E)-5-(2-(5-chlorofuran-2-yl)vinyl)-1-methylfuran-3-carboxylic acid [AT09-B06] | 22.3 | 2.99 | 5.60 | 2490 |  | stronger inhibition | Kd (WT-TTR; read-out: Kd1): 3.9 nM; Kd (WT-TTR; read-out: Kd2): 278 nM; toxicity for HepG2 cells (in words) [2]: relatively low toxicity for HepG2 cells |
| Cc1oc(CSCc2cc(C(=O)O)c(C)o2)cc1C(=O)O [AT09-A00, bis((3-carboxy-2-methyl-furan-5-yl)methyl)sulfane] |  |  |  | 7100 |  | lower inhibitory activity than tafamidis and thyroxine |  |
| CNC[C@H](O)[C@@H](O)[C@H](O)[C@H](O)CO.O=C(O)c1ccc2nc(-c3cc(Cl)cc(Cl)c3)oc2c1 [Tafamidis meglumine, N-methyl D-(2,3,4,5,6-pentahydroxy-hexyl)-ammonium; 2-(3,5-dichloro-phenyl)-benzoxazole-6-carboxylate] |  |  |  |  |  |  | FAP patients with improvement of symptoms [4]: approximately 60% |
| Cc1c(C(=O)O)coc1/C=C/c1ccc(Cl)o1 [AT09-B00, (E)-5-(2-(5-chlorofuran-2-yl)vinyl)-4-methylfuran-3-carboxylic acid] | 22.6 | 2.77 | 5.69 | 2020 | iododiflunisal<tafamidis<AT09-B00; also recorded: at least comparable to the current drug | approaching the high levels of activity of 2OH—PCB80 | Kd (WT-TTR; read-out: Kd1): 3.5 nM; Kd (WT-TTR; read-out: Kd2): 357 nM; tetramer to total protein ratio [5]: 0.961; tetramer to total protein ratio (TTR V30M in human plasma): 0.481; specificity for TTR versus TBG and albumin (in words) ([3]; band intensity): small difference in band intensity for TBG and albumin; toxicity for HepG2 cells (in words) [2]: relatively low toxicity for HepG2 cells |
